Reference: patent publication US20250177566A1, “USE OF CHEMICAL EPIGENETIC MODIFIERS TO MODULATE GENE EXPRESSION” (The University of North Carolina at Chapel Hill, priority 2022, published 2025)

How the values were obtained:
BRD4 = biological target: T1, BRD4 (Homo sapiens, UniProt O60885+P62942); test: BRD4 ChIP-seq, HCT116; type: cell-based
T1 construct: achieved via the accumulation of endogenous epigenetic machinery at the designed gRNA targeted gene locus; endogenous in cells; host or cells: HCT116 cells stably expressing dCas9 and MS2-FKBP*x2, transfected with CXCR4 or NT gRNA
Description: Given that SLF*-CEMa facilitates gene activation via recruitment of BET proteins including BRD4, BRD4 enrichment at a specific targeted gene locus was investigated to further validate the mechanism of CEM207. Based on the alamarBlue cell viability assay performed with HEK293T and HCT116 cells, CEM207 can have different toxicity effects on different cell lines after 4 days of exposure. Specifically, HCT116 appeared to be more tolerant to CEM207 treatment. […] Based on the cell viability data, chromatin immunoprecipitation-qPCR (ChIP-qPCR) was performed in stably infected HCT116 cells. […] The signal change was measured between samples when only CEM207 or gRNA are present and those where both are present. […] To determine outlier significance, a “z-score” distribution was calculated by taking the scaled means of the x- and y-axis values and calculated P values for each point within this distribution. […]
ChIP-seq library preparation. […] Libraries were sequenced to a depth of 30 million […] (75-bp single-end reads) on an Illumina NextSeq 500.
ChIP-seq analyses. Reads from the sequencer were demultiplexed using bcl2fastq (v2.20.0). Sequencing adapters on reads were trimmed using cutadapt (v1.12) using options -a GATCGGAAGAGC (SEQ ID NO: 35) and—minimum-length 36 in […]. […]

[1] = system: AAV transgene expression (firefly luciferase); test: AAV regulation with first generation CEM, dual luciferase assay, HEK293T Renilla; type: cell-based, human; conditions: FIG. 12, 50, 200, 500, 1000 nM
Description: It was investigated whether rAAV transgene expression can be epigenetically controlled. Rapid screening of CEM technology can be performed with dual liucierase assays. (FIG. 10). Briefly, a cell line can be stably transduced with Ef1a-Renilla, enabling normalization to cell number. The cells are then either infected with AAV or tranfected with plasmid and dosed with a chemical epigenetic modifier. Luminescence can then be measured with the Dual Lucieferase Reporter, commercially available from Promega. This approach is described in more detail in the methods section of the example. Gene activation can be described as normalized luciferase or fold change. A measure of total gene expression can be calculated by
Preliminary regulation of AAV with first generation CEMs is depicted in FIG. 11A. The prototype system is autogenous, saving casssette space. (FIG. 11B). […] Preliminary regulation of AAV with first generation CEMs in HEK293T Renilla cells using the cassette in FIG. 11B results are shown in FIG. 13, with multiplicity of infection (MOI)=number of viral genomes/cell.

T1 sequence (P62942 2-108 limits assumed, other chains not shown): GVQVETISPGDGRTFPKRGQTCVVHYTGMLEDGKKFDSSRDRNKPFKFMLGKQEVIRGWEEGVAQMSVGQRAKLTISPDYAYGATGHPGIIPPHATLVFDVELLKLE

Row | SMILES | BRD4 ChIP-seq signal at the CXCR4 locus (BRD4; 25 nM CEM207 + sgCXCR4) | BRD4 peaks having a log2 fold-change in signal less than two in either direction (BRD4; off-target assessment, CEM207 or gRNA only vs both present) [%] | luminescence, fold change compared to no treatment [1]
1 | CC[C@H](C(=O)N1CCCC[C@H]1C(=O)O[C@H](CCc1ccc(OC)c(OC)c1)c1cccc(OCC(=O)NCCOCCOCCNC(=O)C[C@@H]2N=C(c3ccc(Cl)cc3)c3c(sc(C)c3C)-n3c(C)nnc32)c1)c1cc(OC)c(OC)c(OC)c1 [CEM207, (R)-1-(3-((14-((S)-4-(4-Chlorophenyl)-2,3,9-trimethyl-6H-thieno[3,2-f][1,2,4]triazolo[4,3-a][1,4]diazepin-6-yl)-2,13-dioxo-6,9-dioxa-3,12-diazatetradecyl)oxy)phenyl)-3-(3,4-dimethoxyphenyl) propyl(S)-1-((S)-2-(3,4,5-trimethoxyphenyl)butanoyl) piperidine-2-carboxylate] | well-defined BRD4 signal peak at the CXCR4 locus | 96.8 | 
2 | COc1ccc2c(c1)C(c1ccc(Cl)cc1)=N[C@@H](CC(=O)NCc1cn(CCOCCOCCOCCNC(=O)CCSCCC[C@@H]3/C=C(\C)C[C@H](C)C[C@H](OC)[C@H]4O[C@@](O)(C(=O)C(=O)N5CCCC[C@H]5C(=O)O[C@H](/C(C)=C/[C@@H]5CC[C@@H](O)[C@H](OC)C5)[C@H](C)[C@@H](O)CC3=O)[C@H](C)C[C@@H]4OC)nn1)c1nnc(C)n1-2 [CEM87, reference compound] |  |  | dose dependent increase in luminscence
